Data published in patent US6261760A, “Regulation of the cell cycle by sterols” (priority 1999, dated 2001).
Entries after “also recorded” stand apart in the source; their conditions may differ. Read-outs that look alike come from different tables or passages of the source.

Experiments:
vesicular transport = conditions: assays of vesicular transport in vitro; cited from earlier work
fibroblast monolayers [1] = assay: Cellular cholesterol mass (FC, EC, total); assay type: cell-based, human; conditions: +NEM 2 mM; increase over 120 min, 37° C.
Protocol: The FC and EC mass of cell monolayers was determined before and after incubation with lipoprotein as described above. Portions of the chloroform phase were analyzed for total and free cholesterol. Except where indicated each data point represents the mean of triplicate dishes. The coefficient of variation was <5% of means in these experiments.
120 min. at 37° C. Initial cell FC was […].

[2] = test system: intracellular FC transport to the cell surface in fibroblast monolayers; assay: Transfer of intracellular 3H-FC to the cell surface (cholesterol oxidase); assay type: cell-based, human; conditions: in words
Protocol: This assay utilized the finding (see Example 1) that only FC in the caveolar fraction of the plasma membrane fraction was modified by cholesterol oxidase in unfixed fibroblast monolayers.
The rate at which intracellular LDL-derived ^3 H-FC became accessible at the cell surface was measured as follows. Cell monolayers were labeled with ^3 H-FC LDL under the conditions shown for each experiment. Unbound and adsorbed LDL were removed as described above. In some experiments metabolic inhibitors of different transport steps were then added for 30 min at 15° C. […] Cholesterol oxidase (Boehringer-Manheim, Indianapolis, Ind., USA) was added in PBS to a final concentration of 1 U ml^-1. Incubation was for 4 h at 0° C. The cells were washed with ice-cold PBS, and extracted with 0.1 N NAOH. Cell total lipid was extracted with chloroform-methanol (1:1 v/v). […] .
Fibroblast monolayers were prelabeled with FC-labeled LDL for 2 min at 31° C. Medium and surface-bound labeled LDL were removed as described above. The cells were incubated with inhibitors of intracellular transport for 30 min at 15° C. Movement of FC label to the cell surface remained negligible (FIG. 11). The cells were brought to 31° C. for 15 min, and then cooled on wet ice. ^3 H-FC transfer to the cell surface (in the presence and absence of inhibitor) was assayed with cholesterol oxidase as described above.

[3] = test system: LDL FC uptake by fibroblast monolayers; assay: Transfer of LDL-derived 3H-FC into fibroblast monolayers with metabolic inhibitors (Example 2); assay type: cell-based, human; conditions: brefeldin A, vinblastine, taxol, nocodazole; NEM 2 mM
[4] = test system: LDL FC uptake by fibroblast monolayers; assay: Effects of metabolic inhibitors on uptake of 3H-cholesterol from LDL (Example 1)
fibroblast monolayers [5] = assay: FC efflux from fibroblast monolayers (3H-FC label); assay type: cell-based, human
Protocol: Fibroblast monolayers were equilibrated with ^3 H-FC-labeled native plasma or with isolated ^3 H-labeled LDL, as specified for each experiment. Following incubation, the dishes were washed with albumin-complete PBS and then (×4) with complete PBS. They were then incubated for 3 min with unlabeled plasma or lipoprotein fractions and the rate of appearance of radioactivity in the medium determined. Samples of medium ([…]) were immediately chilled in ice water and centrifuged (10 min, 2000×g) at 0-2° C. ^3 H-cholesterol radioactivity in the supernatant was either assayed directly, or fractionated by agarose gel electrophoresis. FC efflux was linear as previously reported (Kawano et al., Biochemistry, 32: 5025-5028 (1993)).
For electrophoresis, […] portions of labeled medium were added to strips of 0.75% w/v agarose in 0.025 M barbital buffer (pH 8.6) and separated as previously described (Fielding et al., Biochemistry, 30: 8551-8557 (1991)). 2.5 mm gel fractions were then collected, and radioactivity measured. The location of major lipoprotein classes was determined from strips run simultaneously with whole native plasma equilibrated (60 min, 37° C.) With ^3 HFC.
Rates of FC influx and efflux between medium and fibroblast monolayers preincubated for 24 h with 7-80% native human plasma in DMEM were determined. Cells equilibrated in 80% compared to 7% v/v plasma contained 35-40% more total cholesterol but only 10-15% more FC. In 50% v/v plasma, cholesteryl ester levels were lower than in 80% plasma but FC levels were almost the same. Rates of transfer of FC between the cells and their extracellular medium were determined for each plasma dilution. […] was measured as the rate of transfer of ^3 H-FC radioactivity from labeled native plasma to unlabeled cells. […] was determined as the rate of transfer of radioactivity from uniformly labeled cells to unlabeled native plasma medium.

[6] = test system: intracellular FC vesicle fractions of fibroblast monolayers; assay: D2O-Ficoll density gradient fractionation of LDL-derived 3H-FC vesicles; assay type: cell-based, human; conditions: NEM 2 mM
Protocol: Early endosomal vesicles were labeled with LDL-derived ^3 H-FC by a modification of procedures described by Woodman & Warren (1991) J. Cell Biol., 112:1133-1141. Fibroblast monolayers in 10 cm dishes were washed in ice-cold PBS. The cells were labeled by incubation (2 h, 4° C.) with ^3 H-FC LDL. The monolayers were washed in PBS and brought to 31° C. for 0-15 min. The cells were then quickly chilled on ice, and cold unlabeled LDL was added (15 min, 4° C.) to displace any remaining surface-bound labeled LDL and all subsequent steps were carried out at 0-4° C.
Cells from three 10 cm dishes were used for each gradient. Monolayers were washed with 140 mM sucrose, 0.5 mM MgCl2, 1 mM EGTA, 20 mM 2-[N-morpholino]ethanesulfonic acid (MES), 70 mM potassium acetate, pH 6.6 (`vesicle buffer`) (Woodman & Warren, supra.). […] Fractions (~0.6 ml) were collected dropwise and the distribution of FC label determined. […] Solution density was determined gravimetrically using […] portions of each fraction. […]
The identity of intracellular transport intermediates and the extent of any cross-contamination between fractions was established using specific antibodies to protein markers, labeled ligands of receptor proteins, and assays of enzyme proteins. […] The distribution of antigen between different gradient fractions was determined with a computerized scanner (ImageQuant, Molecular Devices, Sunnyvale, Calif., USA).

[7] = test system: human hepatoblastoma (HepG2) cells; conditions: cited from earlier work
caveolin mRNA [8] = conditions: literature; cited from earlier work
fibroblasts = conditions: fibroblast monolayers; cited from earlier work
[9] = test system: LDL FC uptake by fibroblast monolayers; conditions: in words
caveolin mRNA [10] = assay: Caveolin mRNA levels (Northern blot); conditions: 80% v/v plasma + 50 μM cholesterol α-epoxide, 8 h with actinomycin, 37° C.
caveolin promoter = assay: Luciferase expression driven by caveolin promoter (pGL3); assay type: cell-based; conditions: Homo sapiens, Skin fibroblast, 3 h; 50 μM cholesterol α-epoxide, 80% v/v plasma; read-out: reduction of luciferase expression
Excerpt: The pGL3 luciferase vector (Promega, Madison, Wis.) was used for cloning purposes. A 705 bp Bgl II restriction fragment corresponding to -781 to -76 bp (relative to the translational start site) was isolated from the 4 kb genomic fragment described above. This was subcloned into the Bgl II site of the vector. The orientation of the insert was identified by restriction mapping and DNA sequencing.
Mutations of sequences within the promoter were created by deletional mutagenesis on single strand DNA, using the Sculptor mutagenesis kit (Amersham). On the basis of the caveolin gene promoter sequence, three oligonucleotides were designed: i) from -664 to -620 with bases -646 to -637 deleted; ii) from -412 to -363 with bases -395 to -386 deleted; and iii) from -302 to -262 with bases -287 to -278 deleted. These were used to generate the promoter mutants designated Δ1, Δ2 and Δ3 respectively.
Normal skin fibroblasts were plated at a density of 5-8×10^5 cells per 6 cm dish. These cells were transfected with 10 μg per dish of the wild type (705 bp) caveolin promoter fragment subcloned in the forward and reverse orientation in the luciferase expression vector pGL3. […] After 10-20 sec, luciferase activity was determined using an analytical luminometer (Monolight 2010, Analytical Luminescence Laboratories, San Diego, Calif.).

For `CCN1C(=O)C=CC1=O` [N-ethylmaleimide], the “concentration for maximal inhibition” value (vesicular transport) is given as 1 mM, the D total cholesterol (fibroblast monolayers [1]) is given as 0.4 ± 0.2 Fg dish^-1 and the “effect on transport of intracellular 3H-FC to the cell surface” value [2] is given as “inhibited the return of FC to the cell surface, but less effectively than did nocodazole”. For the same compound, the “effect on uptake of 3H-FC from LDL” value [3] was “blocks selective uptake of FC from LDL”, the “inhibition of the uptake of free cholesterol from LDLs” value ([4]; FIG. 8) was greater than 80% and the “time course of inhibition of LDL FC uptake” value ([4]; NEM: first 10-15 min, KNO3: 50 mM, data not shown) was “no effect”. The “time to complete inhibition” value ([4]; cells prelabeled to equilibrium (24 h) with 3H-FC) was no more than 30 min, the “inhibition of the uptake of 3H-FC from LDL” value ([4]; preincubated 30 min with NEM, incubation beyond 10-15 min, FIG. 8) was greater than 80% and the Lipoprotein-resistant label (fibroblast monolayers [5]; +NEM 2 mM, proportion retained after 80% v/v plasma-PBS, 10 min, 37° C.) was 0.24 ± 0.03. The “initial rate of efflux of FC from prelabeled cells to plasma” value (fibroblast monolayers [5]; in words, listed as NEM) was “increased rate of efflux; also recorded: increased several-fold” and the “FC label with clathrin at d 1.12 g ml^-1” value [6] was “no peak of FC label was present with clathrin at d 1.12 g ml^-1”.

For `CC(=O)[C@H]1CC[C@H]2[C@@H]3CCC4=CC(=O)CC[C@]4(C)[C@H]3CC[C@]12C` [Progesterone], the “effect on transfer of FC from plasma membrane to cell interior” value [7] is given as “promoted the transfer of FC from the plasma membrane to the interior of the cell”, the “effect on caveolin mRNA levels” value (caveolin mRNA [8]) is given as “reduced equilibrium caveolin mRNA levels” and the “effect on LDL FC uptake” value ([4]; in words) is given as “without effect”. For the same compound, the “transport of FC between the TGN and cell surface” value (fibroblasts) was “inhibited FC transport between the TGN and cell surface” and the “effect on LDL FC uptake” value [9] was “no effect”.

For `CC(C)CCC[C@@H](C)[C@H]1CC[C@H]2[C@@H]3CC4OC45C[C@@H](O)CC[C@]5(C)[C@H]3CC[C@]12C` (stereo partly drawn) [cholesterol α-epoxide], the “caveolin mRNA level relative to total RNA” value (caveolin mRNA [10]) was 0.47 and the inhibition at 50 µM (caveolin promoter) was 60%.
